This note sets out measurements from patent publication US8546378B2, “5HT2C receptor modulator compositions and methods of use” (Arena Pharmaceuticals, Inc., priority 2004, dated 2013).

Structures are written as SMILES.

For orientation: EC50 means the concentration giving half of the maximal effect.

The first assay relates to Sprague-Dawley (SD) rats. Kind of assay: Food intake in rats: selective 5HT-2C agonist alone, phentermine alone, or combination (Example 59). Type of assay: in vivo, rat. Conditions: female SD rats; perorally; 2 h food intake; FIG. 3A; two-way ANOVA, Bonferroni p<0.01. The method, then:
Female (weight 225-250 g) and male (weight 250-275 g) Sprague-Dawley (SD) rats were purchased from Harlan (San Diego, Calif.) and housed 4 per cage in a temperature controlled environment under a 17 h/7 h light/dark cycle (lights out at 10:00 am). Water and Chow was available (LabDiet 8604) ad libitum for two weeks. The animals were handled for 2 occasions during this time. On the morning of the study, the animals were individually housed with no food or bedding and dosed perorally with 1 ml/kg of compound or vehicle 30 minutes prior to lights out. At lights out, the animals were given a pre-weighed amount of chow and placed near the food bowl. Two hours later the remaining chow was weighed and the study concluded.
For `CC(C)(N)Cc1ccccc1` [phentermine, 1,1-Dimethyl-2-phenyl-ethylamine, reference compound], the “effect on food intake in female rats” value was “No other significant differences between groups”.
Turning to `C[C@H]1CNCCc2ccc(Cl)cc21` [Compound B, (R)-8-chloro-1-methyl-2,3,4,5-tetrahydro-1H-3-benzazepine], the “effect on food intake in female rats” value is reported as “No other significant differences between groups”.

Still in this assay, the particulars now being: male SD rats; perorally; 2 h food intake; FIG. 3B; two-way ANOVA, Bonferroni p<0.01.
For the compound `CC(C)(N)Cc1ccccc1` [phentermine, 1,1-Dimethyl-2-phenyl-ethylamine, reference compound], the “effect on food intake in male rats” value was “No other significant differences between groups”.
Same read-out and setting: under `C[C@H]1CNCCc2ccc(Cl)cc21` [Compound B, (R)-8-chloro-1-methyl-2,3,4,5-tetrahydro-1H-3-benzazepine] stands “No other significant differences between groups”.

A further assay concerns the target T1, human 5-HT2C receptor (Homo sapiens, UniProt P28335).
T1 construct: expressed in transfected cells; host or cells: HEK293
T1 sequence (P28335 33-458): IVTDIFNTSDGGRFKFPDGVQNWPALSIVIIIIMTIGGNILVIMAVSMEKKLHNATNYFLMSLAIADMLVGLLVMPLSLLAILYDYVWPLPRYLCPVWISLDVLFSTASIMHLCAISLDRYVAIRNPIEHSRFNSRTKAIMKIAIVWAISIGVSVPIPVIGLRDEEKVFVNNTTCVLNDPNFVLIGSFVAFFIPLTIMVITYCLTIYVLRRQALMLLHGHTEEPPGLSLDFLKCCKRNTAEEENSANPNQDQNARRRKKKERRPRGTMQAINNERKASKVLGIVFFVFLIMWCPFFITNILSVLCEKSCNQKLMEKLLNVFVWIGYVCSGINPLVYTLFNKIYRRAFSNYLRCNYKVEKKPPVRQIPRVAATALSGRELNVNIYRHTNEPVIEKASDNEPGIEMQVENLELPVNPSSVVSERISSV
Kind of assay: Intracellular IP3 Accumulation Assay. The format is cell-based. Conditions: HEK293 cells transfected with human 5-HT2C receptor; averages of at least two trials; read-out: 5-HT2C (EC50) IP Accumulation Assay. The method, then:
HEK293 cells were transfected in 15 cm sterile dishes with or without (control) 16 μg of human 5-HT2C receptor cDNA using 25 μl of lipofectamine. Cells were then incubated for 3-4 hours at 37° C./5% CO2 and then transfection media was removed and replaced with 100 μl of DMEM. Cells were then plated onto 100 cm sterile dishes. The next day cells were plated into 96 well PDL microtiter plates at a density of 55K/0.2 ml. Six hours latter, media was exchanged with [^3H]inositol (0.25 μCi/well) in inositol free DMEM and plates were incubated at 37° C./5% CO2 overnight. The next day, wells were aspirated and 200 μl of DMEM containing test compound, 10 μM pargyline, and 10 mM LiCl was added to appropriate wells. Plates were then incubated at 37° C./5% CO2 for three hours followed aspiration and by addition of fresh ice cold stop solution (1M KOH, 19 mM Na-borate, 3.8 mM EDTA) to each well. Plates were kept on ice for 5-10 min and the wells were neutralized by addition of 200 μl of fresh ice cold neutralization solution (7.5% HCl). Plates were then frozen until further processing is desired. The lysate was then transferred into 1.5 ml Eppendorf tubes and 1 ml of chloroform/methanol (1:2) was added/tube. The solution was vortexed for 15 seconds and the upper phase was applied to a Biorad AG1-X8™ anion exchange resin (100-200 mesh). First, the resin was washed with water at 1:1.25 W/V and 0.9 ml of upper phase was loaded onto the column. The column was then washed with 10 ml of 5 mM myo-inositol and 10 ml of 5 mM Na-borate/60 mM Na-formate. The inositol tris phosphates were eluted into scintillation vials containing 10 ml of scintillation cocktail with 2 ml of 0.1 M formic acid/1 M ammonium formate. The columns were regenerated by washing with 10 ml of 0.1 M formic acid/3M ammonium formate and rinsed twice with dd H2O and stored at 4° C. in water.
Take `COc1cc2c(cc1Br)C(C)CNCC2` (racemic) [Example 1, (R,S) 8-Bromo-7-methoxy-1-methyl-2,3,4,5-tetrahydro-1H-3-benzazepine]: the EC50 came out at 4.2 nM.
For the compound `COc1cc2c(cc1Cl)C(C)CNCC2` (racemic) [Example 2, (R,S) 8-Chloro-7-methoxy-1-methyl-2,3,4,5-tetrahydro-1H-3-benzazepine], the EC50 was 4.5 nM.
Turning to `CC1CNCCc2cc(O)c(Br)cc21` (racemic) [Example 4, (R,S) 8-Bromo-7-hydroxy-1-methyl-2,3,4,5-tetrahydro-1H-3-benzazepine], the half-maximal effective concentration (EC50) came to 2.1 nM.
As for `C=CCOc1cc2c(cc1I)C(C)CNCC2` (racemic) [Example 12, (R,S) 7-Allyloxy-8-iodo-1-methyl-2,3,4,5-tetrahydro-1H-3-benzazepine], the EC50 stood at 6.3 nM.
For `CC1CNCCc2ccc(Br)cc21` (racemic) [Example 32, (R,S) 8-Bromo-1-methyl-2,3,4,5-tetrahydro-1H-3-benzazepine], the EC50 was found to be 2.1 nM.
Same read-out and setting: under `CCC1CNCCc2cc(OC)c(Br)cc21` (racemic) [Example 19, (R,S) 8-Bromo-1-ethyl-7-methoxy-2,3,4,5-tetrahydro-1H-3-benzazepine] stands 18 nM; under `COc1cc2c(cc1I)C(C)CNCC2` (racemic) [Example 3, (R,S) 8-Iodo-7-methoxy-1-methyl-2,3,4,5-taetrhydro-1H-3-benzazepine], 1.4 nM; under `C=CCOc1cc2c(cc1Br)C(C)CNCC2` (racemic) [Example 5, (R,S) 7-Allyloxy-8-bromo-1-methyl-2,3,4,5-tetrahydro-1H-3-benzazepine], 12.1 nM.
